Reference: ChEMBL document CHEMBL3585306, “Anti-HIV diarylpyrimidine-quinolone hybrids and their mode of action” (Bioorg Med Chem, 2015)
Calls of active or inactive are those of the source. The rule behind the calls is not given here.

Assays:
[1] = test system: Human immunodeficiency virus 1; experiment: Antiviral activity against wild-type HIV1 3B infected in human MT4 cells assessed as protection of cells from virus-induced cytopathic after 5 days by MTT assay; format: functional, organism-based; conditions: Human immunodeficiency virus 1, 3B, MT4, 120 h
[2] = Selectivity index, ratio of CC50 for mock-infected human MT4 cells to EC50 for HIV1 3B infected in human MT4 cells; format: toxicity, cell-based; conditions: mock-infected (CC50) and HIV1 3B infected (EC50)
[3] = Cytotoxicity against mock-infected human MT4 cells after 5 days by MTT assay; format: cell-based
[4] = molecular target: Human immunodeficiency virus type 1 reverse transcriptase (Human immunodeficiency virus 1, UniProt Q72547); experiment: Inhibition of wild-type HIV1 Reverse transcriptase p66/p51 assessed as relative fluorescence signal after 40 mins
[5] = test system: Human immunodeficiency virus 1; experiment: Antiviral activity against HIV1 harboring K103N/Y181C double mutant infected in human MT4 cells assessed as protection of cells from virus-induced cytopathic after 5 days by MTT assay; format: functional, organism-based; conditions: Human immunodeficiency virus 1, MT4, 120 h
[6] = molecular target: Human immunodeficiency virus type 1 reverse transcriptase (Human immunodeficiency virus 1) (UniProt Q72547); experiment: Inhibition of wild-type HIV1 Reverse transcriptase p66/p51 assessed as fluorescence signal by time-of-addition assay
[7] = molecular target: Human immunodeficiency virus type 1 integrase (Human immunodeficiency virus 1, UniProt Q7ZJM1); experiment: Inhibition of HIV1 integrase
Sequence of Human immunodeficiency virus type 1 integrase (Q7ZJM1 whole entry): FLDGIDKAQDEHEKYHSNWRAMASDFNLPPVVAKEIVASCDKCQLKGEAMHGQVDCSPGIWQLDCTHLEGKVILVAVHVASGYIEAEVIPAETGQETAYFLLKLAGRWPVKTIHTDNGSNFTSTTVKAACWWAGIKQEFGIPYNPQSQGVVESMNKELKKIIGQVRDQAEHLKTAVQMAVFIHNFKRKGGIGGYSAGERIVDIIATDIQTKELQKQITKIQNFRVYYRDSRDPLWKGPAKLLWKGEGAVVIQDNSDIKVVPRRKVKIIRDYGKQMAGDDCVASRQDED

SMILES | EC50 [1] [µM] | selectivity ratio [2] | CC50 at 120 h [3] [µM] | IC50 [4] [µM] | EC50 [5] [µM] | inhibition [6] | IC50 [7] [µM]
CCn1cc(C(=O)O)c(=O)c2ccc(Nc3ccnc(Nc4ccc(C#N)cc4)n3)cc21 | > 123 | < 1 | 123 | 7.07 | > 123 | – | –
O=C1Nc2ccc(Cl)cc2[C@@](C#CC2CC2)(C(F)(F)F)O1 [EFAVIRENZ] | – | – | > 6.5 | – | 0.14 | – | –
N#Cc1ccc(Nc2nccc(Oc3ccc4c(=O)c(C(=O)O)cn(C5CC5)c4c3)n2)cc1 | > 221 | ≤ 1 | ≥ 221 | – | > 221 | – | –
CCC(C)n1cc(C(=O)O)c(=O)c2ccc(Oc3ccnc(Nc4ccc(C#N)cc4)n3)cc21 (stereo unspecified) | > 274 | 1 | > 274 | – | > 274 | – | –
N#Cc1ccc(Nc2nccc(Nc3ccc4c(=O)c(C(=O)O)cn(C5CCCCC5)c4c3)n2)cc1 | > 2.18 | < 1 | 2.18 | – | > 2.18 | – | –
CC(C)n1cc(C(=O)O)c(=O)c2ccc(Nc3ccnc(Nc4ccc(C#N)cc4)n3)cc21 | > 10.9 | < 1 | 10.9 | – | > 10.9 | – | –
N#Cc1ccc(Nc2nccc(Oc3ccc4c(=O)c(C(=O)O)cn(C5CCCC5)c4c3)n2)cc1 | 0.98 | 5 | 4.96 | 6.08 | > 4.96 | – | –
N#Cc1ccc(Nc2nccc(Oc3ccc4c(=O)c(C(=O)O)cn(C5CCCCC5)c4c3)n2)cc1 | > 3.22 | < 1 | 3.22 | – | > 3.22 | – | –
Cc1ccnc2c1NC(=O)c1cccnc1N2C1CC1 [NEVIRAPINE] | 0.244 | – | > 15 | – | ≥ 11 | – | –
CCCn1cc(C(=O)O)c(=O)c2ccc(Nc3ccnc(Nc4ccc(C#N)cc4)n3)cc21 | > 189 | < 1 | 189 | – | > 189 | – | –
CCn1cc(C(=O)O)c(=O)c2ccc(Oc3ccnc(Nc4ccc(C#N)cc4)n3)cc21 | 0.28 | 880 | 246 | 7.15 | > 246 | Active | –
CC(C)n1cc(C(=O)O)c(=O)c2ccc(Oc3ccnc(Nc4ccc(C#N)cc4)n3)cc21 | > 283 | 1 | > 283 | – | > 283 | – | –
CCCn1cc(C(=O)O)c(=O)c2ccc(Oc3ccnc(Nc4ccc(C#N)cc4)n3)cc21 | ≥ 0.43 | ≤ 569 | 245 | 9.12 | > 245 | – | –
Cc1cn([C@H]2C[C@H](N=[N+]=[N-])[C@@H](CO)O2)c(=O)[nH]c1=O [ZIDOVUDINE] | 0.0056 | 16800 | > 94 | – | 0.0052 | – | –
CCCCn1cc(C(=O)O)c(=O)c2ccc(Oc3ccnc(Nc4ccc(C#N)cc4)n3)cc21 | 0.33 | ≥ 604 | ≥ 199 | 3.49 | > 199 | Active | 32.5
COc1cc2c(cc1Cc1cccc(Cl)c1F)c(=O)c(C(=O)O)cn2[C@H](CO)C(C)C | 0.0031 | – | 4.6 | – | 0.0022 | – | –
Cc1cc(C#N)cc(C)c1Oc1nc(Nc2ccc(C#N)cc2)nc(N)c1Br [ETRAVIRINE] | 0.0019 | – | 14.2 | – | 0.014 | – | –
CC(C)Cn1cc(C(=O)O)c(=O)c2ccc(Oc3ccnc(Nc4ccc(C#N)cc4)n3)cc21 | 1.16 | > 237 | > 274 | 14 | > 274 | Active | –
CCCCn1cc(C(=O)O)c(=O)c2ccc(Nc3ccnc(Nc4ccc(C#N)cc4)n3)cc21 | > 13.6 | < 1 | 13.6 | – | > 13.6 | – | –
